In brackets after ≈: the same amount, converted by molar mass. Several values for one entry are separate records, joined by “and”; a condition that tells them apart may be missing. Equal entries are not always repeated. Where two headings read alike, the source gives them in different places. Marks after values point to notes of the source that are not given here.
Legend:
T. rubrum [1] = test: MIC testing, modified CLSI M38-A2 for dermatophytes (Example 2); format: cell-based, Trichophyton rubrum; details: for MIC50: lowest concentration to inhibit 50% of the strains tested, n = 20; for MIC90 / MIC Range: n = 20 strains
T. rubrum [2] = test: Checkerboard microdilution Compound 8 + fluconazole, FIC Index (Example 2); format: cell-based, Trichophyton rubrum; details: Compound 8 in combination with fluconazole, one value per strain (MRL #)
Procedure: This example describes the in vitro activity of combinations of compounds according to the present invention and antifungal agents against clinical isolates of Trichophyton rubrum. Twenty clinical isolates Trichophyton rubrum, including 9 strains with elevated terbinafine MICs, taken from the culture collection of the Center for Medical Mycology, were tested.
(§1) MIC testing was performed according to the modification of the CLSI M38-A2 standard for dermatophytes developed at the Center (CLSI. Reference Method for Broth Dilution Antifungal Susceptibility Testing of Filamentous Fungi; Approved Standard-Second Edition. CLSI document M38-A2 [ISBN 1-56238-668-9]. CLSI, 940 West Valley Road, Suite 1400, Wayne, Pa. 19087-1898 USA, 2008; Ghannoum M A, et al. Intra- and Interlaboratory Study of a Method for Testing the Antifungal Susceptibilities of Dermatophytes. 2004 J Clin Microbiol 42:(7): 2977-2979). Compound 8 and fluconazole were tested in combination using a checkerboard microdilution method. The interaction between Compound 8 and fluconazole was determined by FIC Index, or Fractional Inhibitory Concentration Index, which assigns a numerical value to the interaction of the two antifungals.

M. canis [3] = test: Checkerboard combination testing of compound 8 with antifungals, FIC (Example 1); format: cell-based, Microsporum canis; details: Compound 8 in combination with itraconazole, N=5 isolates
[4] = system: T. rubrum, T. mentagrophytes and T. tonsurans strains; test: Checkerboard microdilution Compound 8 + fluconazole, all strains (Example 2); format: cell-based; details: Compound 8 in combination with fluconazole
Procedure: as §1

T. mentagrophytes [5] = test: Checkerboard combination testing of compound 8 with antifungals, FIC (Example 1); format: cell-based, Trichophyton mentagrophytes; details: n=6 isolates; for Additivity # isolates / Additivity isolates (%): 0.5≦FIC≦1.0; for No Interaction # isolates: 1.0<FIC≦4.0; for Synergy # isolates / Synergy isolates (%): FIC<0.5
Procedure: (§2) This example describes the in vitro activity of combinations of compounds according to the present invention and antifungal agents against a collection of dermatophytic fungal pathogens. Antifungal susceptibility testing was adapted from the CLSI M38-A broth microdilution method for dermatophytes (NCCLS-M38-A2 2008). Combination testing was performed by checkerboard method (with compound 8 in combination with fluconazole, itraconazole or terbinafine). A total of 30 isolates of 5 different fungal species were tested in the combination test: 6 isolates each of Trichophyton tonsurans, Trichophyton rubrum, Epidermophyton floccosum, Trichophyton mentagrophytes and Microsporum canis. Clinical isolates were obtained by the Laboratory of Dr. M. Ghannoum at Case Western University.
(§3) Synergy was assessed using the fractional inhibitory concentration (FIC), an interaction coefficient, with the following definitions: […]

[6] = system: broad panel of dermatophytic clinical isolates; test: Single agent MIC, whole panel (Example 1); format: cell-based; details: range over all species and clinical isolates tested
Text: (§4) A minimum inhibitory concentration (MICx) of a compound such as a HDAC inhibitor or an antifungal agent (or both) is the concentration that reduces growth of a fungus by X %, compared to the growth of the fungus in the absence of the compound.
as §2

T. tonsurans [7] = test: MIC testing, modified CLSI M38-A2 for dermatophytes (Example 2); format: cell-based; details: for MIC50 / MIC90 / MIC Range: n = 5 strains
Procedure: as §1

T. mentagrophytes [8] = test: as above; format: cell-based; details: for MIC50 / MIC90 / MIC Range: n = 5 strains
Procedure: as §1

M. canis [9] = test: Checkerboard combination testing of compound 8 with antifungals, FIC (Example 1); format: cell-based, Microsporum canis
Procedure: as §2, §3

[10] = system: panel of clinical isolates of 5 common dermatophytic fungi; test: Checkerboard combination testing, whole panel (Example 1); format: cell-based
Procedure: as §2, §3

T. tonsurans [11] = test: Checkerboard microdilution Compound 8 + fluconazole, FIC Index (Example 2); format: cell-based; details: Compound 8 in combination with fluconazole, one value per strain (MRL #)
Procedure: as §1

T. mentagrophytes [12] = test: as above; format: cell-based; details: Compound 8 in combination with fluconazole, one value per strain (MRL #)
Procedure: as §1

[13] = system: clinical isolates of Zygomycetes and molds; test: In vitro synergy with azoles; format: cell-based; details: majority of clinical isolates
E. floccosum [14] = test: Checkerboard combination testing of compound 8 with antifungals, FIC (Example 1); format: cell-based, Epidermophyton floccosum; details: for Additivity # isolates / Additivity isolates (%): 0.5≦FIC≦1.0
Procedure: as §2
(§5) Synergy was assessed using the fractional inhibitory concentration (FIC), an interaction coefficient, with the following definitions:
(§6) The fold reduction of the itraconazole minimum inhibitory concentration (MIC) was also evaluated.

T. tonsurans [15] = test: as above; format: cell-based, Trichophyton tonsurans; details: for Additivity # isolates / Additivity isolates (%): 0.5≦FIC≦1.0; for No Interaction # isolates: 1.0<FIC≦4.0; for Synergy # isolates / Synergy isolates (%): FIC<0.5
Procedure: as §2, §5, §6

T. rubrum [16] = test: as above; format: cell-based, Trichophyton rubrum; details: n=6 isolates; for Additivity # isolates / Additivity isolates (%): 0.5≦FIC≦1.0; for No Interaction # isolates: 1.0<FIC≦4.0; for Synergy # isolates / Synergy isolates (%): FIC<0.5
Procedure: as §2, §3

E. floccosum [17] = test: Single agent MIC, broth microdilution adapted from CLSI M38-A (Example 1); format: cell-based; details: Epidermophyton floccosum, range over clinical isolates, N=9, read-out: Cpd 8 MIC
Text: as §4, §2

T. rubrum [18] = test: as above; format: cell-based; details: Trichophyton rubrum, range over clinical isolates, N=10, read-out: Cpd 8 MIC
Text: as §4, §2

T. tonsurans [19] = test: as above; format: cell-based; details: Trichophyton tonsurans, range over clinical isolates, N=8, read-out: Cpd 8 MIC
Text: as §4, §2

T. mentagrophytes [20] = test: as above; format: cell-based; details: Trichophyton mentagrophytes, range over clinical isolates, N=10, read-out: Cpd 8 MIC
Text: as §4, §2

M. canis [21] = test: as above; format: cell-based; details: Microsporum canis, range over clinical isolates, N=7, read-out: Cpd 8 MIC
Text: as §4, §2

[22] = Trichophyton rubrum, read-out: MIC50
[23] = Compound 8 in combination with fluconazole
[24] = Compound 8 in combination with itraconazole
[25] = Compound 8 in combination with fluconazole, 0.5≦FIC≦1.0, n=6 isolates
[26] = Compound 8 in combination with fluconazole, 1.0<FIC≦4.0, n=6 isolates
[27] = Compound 8 in combination with fluconazole, FIC<0.5, n=6 isolates
[28] = Compound 8 in combination with fluconazole, n=6 isolates
[29] = Compound 8 in combination with itraconazole, n=6 isolates
[30] = Compound 8 in combination with itraconazole, FIC<0.5, n=6 isolates
[31] = one value per clinical isolate (Strain # 1-6)
[32] = Compound 8 in combination with itraconazole, N=5 isolates

## O=C(Cc1ccc(CCCCc2ccccc2)cc1)NO [Compound 8]
T. rubrum [1]; [22]
  MIC50: 1 µg/mL (≈ 3.53 µM)
T. rubrum [1]; Trichophyton rubrum
  MIC90: 4 µg/mL (≈ 14.1 µM)
T. rubrum [1]
  MIC50: 1 µg/mL (≈ 3.53 µM)
  MIC Range: 0.5 to 4.0 µg/mL
T. rubrum [1]; nine strains with a terbinafine MIC≧4.0 μg/ml
  Compound 8 MIC compared with the corresponding terbinafine MIC: lower than the corresponding terbinafine MIC for eight of nine strains
T. rubrum [2]; strain MRL 476
  Interpretation from ODDS: No interaction
T. rubrum [2]; strain MRL 477
  Interpretation from ODDS: Additive
T. rubrum [2]; strain MRL 670
  Interpretation from ODDS: Synergistic
T. rubrum [2]; strain MRL 9482
  Interpretation from ODDS: Addivtive
M. canis [3]; 0.5≦FIC≦1.0
  Additivity # isolates: 0*
M. canis [3]; 1.0<FIC≦4.0
  No Interaction isolates (%): (80%)*
M. canis [3]; FIC<0.5
  Synergy # isolates: 1
  Synergy isolates (%): (20%)*
[4]
  Antagonism: No antagonism was demonstrated
  Synergism, % of the strains: 23%
T. mentagrophytes [5]; [23]
  Additivity # isolates: 4
  Additivity isolates (%): (67%)
  No Interaction # isolates: 0
  Synergy # isolates: 2
  Synergy isolates (%): (33%)
T. mentagrophytes [5]; [24]
  Additivity # isolates: 1
  Additivity isolates (%): (17%)
  No Interaction # isolates: 0
  Synergy # isolates: 5
  Synergy isolates (%): (83%)
[6]
  MIC: 0.02 to 2 µg/mL
T. tonsurans [7]; Trichophyton tonsurans, drug alone, one value per strain (MRL # in c0), read-out: Individual MIC
  MIC: 0.12 µg/mL
T. tonsurans [7]; Trichophyton tonsurans
  MIC50: 0.06 µg/mL
  MIC90: 0.06 µg/mL
T. tonsurans [7]; all strains tested
  Antifungal activity as compared with fluconazole: more potent antifungal activity as compared with fluconazole
T. tonsurans [7]
  MIC Range: 0.06 to 0.12 µg/mL
T. mentagrophytes [8]; Trichophyton mentagrophytes, drug alone, one value per strain (MRL # in c0), read-out: Individual MIC
  MIC: 1 µg/mL
T. mentagrophytes [8]; Trichophyton mentagrophytes
  MIC50: 1 µg/mL
  MIC90: 1 µg/mL
T. mentagrophytes [8]; all strains tested
  Antifungal activity as compared with fluconazole: more potent antifungal activity as compared with fluconazole
T. mentagrophytes [8]
  MIC Range: 1.0 µg/mL
M. canis [9]; [25]
  Additivity # isolates: 4
  Additivity isolates (%): (67%)
M. canis [9]; [26]
  No Interaction # isolates: 1
  No Interaction isolates (%): (17%)
M. canis [9]; [27]
  Synergy # isolates: 1
  Synergy isolates (%): (17%)
M. canis [9]; Compound 8 in combination with itraconazole, 1.0<FIC≦4.0, N=5 isolates
  No Interaction # isolates: 4
[10]; Compound 8 with fluconazole, 30 isolate combinations
  Synergy, % of the isolate combinations tested: 33%
[10]; Compound 8 with fluconazole, of 30 isolate combinations tested
  Synergy, number of isolates: 10
[10]; Compound 8 with itraconazole, 28 isolate combinations
  Synergy, % of the isolate combinations tested: 54%
[10]; Compound 8 with itraconazole, of 28 isolate combinations tested
  Synergy, number of isolates: 15
[10]; any of the Compound 8-azole combinations or clinical isolates
  Antagonism: Antagonism was not observed
T. tonsurans [11]; strain MRL 10152
  Interpretation from ODDS: Additive
T. tonsurans [11]; strain MRL 10327
  Interpretation from ODDS: No interaction
T. tonsurans [11]; strain MRL 10328
  Interpretation from ODDS: Synergistic
T. mentagrophytes [12]; strain MRL 11256
  Interpretation from ODDS: Synergistic
T. mentagrophytes [12]; strain MRL 12511
  Interpretation from ODDS: Additive
T. mentagrophytes [12]; strain MRL 12680
  Interpretation from ODDS: No interaction
[13]
  In vitro interaction with azoles: synergy
E. floccosum [14]; [28]
  Additivity # isolates: 4
  Additivity isolates (%): (67%)
E. floccosum [14]; [26]
  No Interaction # isolates: 2
  No Interaction isolates (%): (33%)
E. floccosum [14]; [27]
  Synergy # isolates: 0
E. floccosum [14]; [29]
  Additivity # isolates: 2
  Additivity isolates (%): (33%)
E. floccosum [14]; Compound 8 in combination with itraconazole, 1.0<FIC≦4.0, n=6 isolates
  No Interaction # isolates: 0
E. floccosum [14]; [30]
  Synergy # isolates: 4
  Synergy isolates (%): (67%)
E. floccosum [14]; [31]
  Fold Reduction of Itraconazole MIC by Cpd 8: 8x and 4x and 7.5x
T. tonsurans [15]; [28]
  Additivity # isolates: 1
  Additivity isolates (%): (17%)
  No Interaction # isolates: 0
  Synergy # isolates: 5
  Synergy isolates (%): (83%)
T. tonsurans [15]; [32]
  Additivity # isolates: 4
  Additivity isolates (%): (80%)*
  No Interaction # isolates: 0
  Synergy # isolates: 1
  Synergy isolates (%): (20%)*
T. tonsurans [15]; [31]
  Fold Reduction of Itraconazole MIC by Cpd 8: 2x and 4x
T. rubrum [16]; [23]
  Additivity # isolates: 4
  Additivity isolates (%): (67%)
  No Interaction # isolates: 0
  Synergy # isolates: 2
  Synergy isolates (%): (33%)
T. rubrum [16]; [24]
  Additivity # isolates: 2
  Additivity isolates (%): (33%)
  No Interaction # isolates: 0
  Synergy # isolates: 4
  Synergy isolates (%): (67%)
E. floccosum [17]
  MIC: 0.5 to 1 µg/mL
T. rubrum [18]
  MIC: 0.06 to 0.25 µg/mL
T. tonsurans [19]
  MIC: 0.02 to 0.25 µg/mL
T. mentagrophytes [20]
  MIC: 0.12 to 2 µg/mL
M. canis [21]
  MIC: 0.12 to 2 µg/mL

## OC(Cn1cncn1)(Cn1cncn1)c1ccc(F)cc1F [Fluconazole, fluconazole]
T. rubrum [1]; [22]
  MIC50: 1 µg/mL (≈ 3.27 µM)
T. rubrum [1]; Trichophyton rubrum
  MIC90: 1 µg/mL (≈ 3.27 µM)
T. rubrum [1]
  MIC50: 1 µg/mL (≈ 3.27 µM)
  MIC Range: 0.25 to 4.0 µg/mL
T. tonsurans [7]; Trichophyton tonsurans
  MIC50: 2 µg/mL
  MIC90: 4 µg/mL
T. tonsurans [7]
  MIC Range: 1.0 to 4.0 µg/mL
T. mentagrophytes [8]; Trichophyton mentagrophytes
  MIC50: 16 µg/mL
  MIC90: 16 µg/mL
T. mentagrophytes [8]
  MIC Range: 2.0 to 16.0 µg/mL
